Reference: US20230159546A1, “NOVEL SPIROPYRROLIDINE DERIVED ANTIVIRAL AGENTS” (Enanta Pharmaceuticals, Inc., priority 2021, published 2023)

Legend:
[1] = test system: 229E human corona virus (hCoV); assay: 229E live virus assay (CPE, ATPlite readout, MRC-5 cells); format: cell-based, hCoV-229E; details: Human coronavirus 229E, MRC5, 144 h; MRC-5 cells, MOI 0.05, 6 days at 34° C., ATPlite, duplicate; read-out: 229E EC50
[2] = biological target: SARS-CoV-2 3CL-protease (Severe acute respiratory syndrome coronavirus 2, UniProt P0DTD1); assay: SARS-CoV-2 3C-like (3CL) protease fluorescence assay (FRET); format: biochemical; details: recombinant SARS-CoV-2 3CL-protease 10 nM, 30 min preincubation at RT, duplicate; read-out: FRET IC50

| SMILES | EC50 [1] [nM] | IC50 [2] [nM] |
| --- | --- | --- |
| CCNC(=O)N1C[C@]2(C[C@H]1C#N)C(=O)Nc1ccccc12 [Example 46] | > 1000 | > 1000 |
| CC(C)CC(F)(C(=O)Nc1ccccc1)C(=O)N1C[C@]2(C[C@H]1C#N)C(=O)Nc1ccccc12 (stereo partly drawn) [Example 18] | > 1000 | > 1000 |
| CC(C)CC(F)(C(=O)Nc1cc(F)cc(F)c1)C(=O)N1C[C@]2(C[C@H]1C#N)C(=O)Nc1ccccc12 (stereo partly drawn) [Example 20] | > 1000 | > 1000 |
| N#C[C@@H]1C[C@@]2(CN1C(=O)NCc1nccs1)C(=O)Nc1ccccc12 [Example 53] | > 1000 | > 1000 |
| CC(C)CC(C(=O)Nc1cc2ccccc2[nH]1)C(=O)N1C[C@]2(C[C@H]1C#N)C(=O)Nc1ccccc12 (stereo partly drawn) [Example 4] | > 1000 | > 1000 |
| CC(C)CC(C(=O)N(C)c1ccccc1)C(=O)N1C[C@]2(C[C@H]1C#N)C(=O)Nc1ccccc12 (stereo partly drawn) [Example 2] | > 1000 | > 1000 |
| N#C[C@@H]1C[C@@]2(CN1C(=O)C(F)(Cc1ccccc1)C(=O)Nc1cc(F)cc(F)c1)C(=O)Nc1ccccc12 (stereo partly drawn) [Example 28] | > 1000 | > 1000 |
| N#C[C@@H]1C[C@@]2(CN1C(=O)c1cc3ccccc3nc1Cl)C(=O)Nc1ccccc12 [Example 37] | > 1000 | > 1000 |
| N#C[C@@H]1C[C@@]2(CN1C(=O)C1CCCCC1)C(=O)Nc1ccccc12 [Example 43] | > 1000 | > 1000 |
| CC(C)CC(C(=O)Nc1ccc(F)cc1F)C(=O)N1C[C@]2(C[C@H]1C#N)C(=O)Nc1ccccc12 (stereo partly drawn) [Example 8] | > 1000 | > 1000 |
| CC(C)CC(C(=O)Nc1cc(F)cc(F)c1)C(=O)N1C[C@]2(C[C@H]1C#N)C(=O)Nc1ccccc12 (stereo partly drawn) [Example 7] | 100 to 1000 | > 1000 |
| N#C[C@@H]1C[C@@]2(CN1C(=O)C(Cc1ccccc1)C(=O)Nc1ccccc1)C(=O)Nc1ccccc12 (stereo partly drawn) [Example 21] | > 1000 | 100 to 1000 |
| N#C[C@@H]1C[C@@]2(CN1C(=O)C(=O)OC1CCCCC1)C(=O)Nc1ccccc12 [Example 113] |  | 100 to 1000 |
| N#C[C@@H]1C[C@@]2(CN1NC(=O)c1ccccc1)C(=O)Nc1ccccc12 [Example 142] |  | > 1000 |
| N#C[C@@H]1C[C@@]2(CN1C(=O)C(Cc1ccccc1)C(=O)C1CC1)C(=O)Nc1ccccc12 (stereo partly drawn) [Example 92] |  | 100 to 1000 |
| CC1(NC(=O)C(=O)N2C[C@]3(C[C@H]2C#N)C(=O)Nc2ccccc23)CCCC1 [Example 179] |  | 100 to 1000 |
| N#C[C@@H]1C[C@@]2(CN1NC(=O)C1CC1)C(=O)Nc1ccccc12 [Example 140] |  | > 1000 |
| N#C[C@@H]1C[C@@]2(CN1C(=O)C(=O)NCCc1cc(F)cc(F)c1F)C(=O)Nc1ccccc12 [Example 187] |  | > 1000 |
| CC(C)OC(=O)N1C[C@]2(C[C@H]1C#N)C(=O)Nc1ccccc12 [Example 68] |  | > 1000 |
| N#C[C@@H]1C[C@@]2(CN1C(=O)C(=O)NCC1CCCCC1)C(=O)Nc1ccccc12 [Example 154] |  | 100 to 1000 |
| N#C[C@@H]1C[C@@]2(CN1C(=O)C(=O)NCC13CC4CC(CC(C4)C1)C3)C(=O)Nc1ccccc12 [Example 158] |  | < 100 |
| N#C[C@@H]1C[C@@]2(CN1C(=O)C(=O)N[C@H]1CC[C@@H](NC(=O)c3ccccc3)CC1)C(=O)Nc1ccccc12 [Example 151] |  | > 1000 |
| N#C[C@@H]1C[C@@]2(CN1C(=O)NCc1cc3ccccc3[nH]1)C(=O)Nc1ccccc12 [Example 130] |  | > 1000 |
| N#C[C@@H]1C[C@@]2(CN1C(=O)[C@@H](Cc1ccccc1)C(=O)Nc1ccccc1)C(=O)Nc1ccccc12 [Example 121] |  | > 1000 |
| N#C[C@@H]1C[C@@]2(CN1C(=O)OCn1cccn1)C(=O)Nc1ccccc12 [Example 87] |  | > 1000 |
| N#C[C@@H]1C[C@@]2(CN1C(=O)C(=O)Nc1cccc(C(F)(F)F)n1)C(=O)Nc1ccccc12 [Example 166] |  | > 1000 |

| SMILES | EC50 [1] [nM] | IC50 [2] [nM] |
| --- | --- | --- |
| N#C[C@@H]1C[C@@]2(CN1C(=O)CC(=O)N[C@@H]1CCC[C@@H]1O)C(=O)Nc1ccccc12 [Example 170] |  | > 1000 |
| N#C[C@@H]1C[C@@]2(CN1S(=O)(=O)NC1CC1)C(=O)Nc1ccccc12 [Example 58] |  | > 1000 |
| N#C[C@@H]1C[C@@]2(CN1C(=O)C(=O)NC1CC1)C(=O)Nc1ccccc12 [Example 78] |  | > 1000 |
| N#C[C@@H]1C[C@@]2(CN1S(=O)(=O)Nc1ccccc1)C(=O)Nc1ccccc12 [Example 85] |  | > 1000 |
| N#C[C@@H]1C[C@@]2(CN1C(=O)[C@H](Cc1ccccc1)C(=O)NC1CC1)C(=O)Nc1ccccc12 [Example 116] |  | 100 to 1000 |
| N#C[C@@H]1C[C@@]2(CN1S(=O)(=O)Nc1ccc(F)cc1)C(=O)Nc1ccccc12 [Example 62] |  | > 1000 |
| N#C[C@@H]1C[C@@]2(CN1C(=O)OCc1ccccc1)C(=O)Nc1ccccc12 [Example 72] |  | 100 to 1000 |
| N#C[C@@H]1C[C@@]2(CN1C(=O)C(=O)OC1CCCC1)C(=O)Nc1ccccc12 [Example 112] |  | > 1000 |
| N#C[C@@H]1C[C@@]2(CN1C(=O)OCc1nccs1)C(=O)Nc1ccccc12 [Example 86] |  | > 1000 |
| CC(C)(C)OC(=O)N[C@H]1CC[C@@H](NC(=O)C(=O)N2C[C@]3(C[C@H]2C#N)C(=O)Nc2ccccc23)C1 [Example 152] |  | > 1000 |
| N#C[C@@H]1C[C@@]2(CN1C(=O)[C@H](Cc1ccccc1)C(=O)c1ccccc1)C(=O)Nc1ccccc12 [Example 94] |  | > 1000 |
| N#C[C@@H]1C[C@@]2(CN1C(=O)C(=O)NCc1nccs1)C(=O)Nc1ccccc12 [Example 81] |  | > 1000 |
| N#C[C@@H]1C[C@@]2(CN1C(=O)CC(=O)N[C@H]1CCC[C@H]1O)C(=O)Nc1ccccc12 [Example 173] |  | > 1000 |
| N#C[C@@H]1C[C@@]2(CN1C(=O)OC1CCCC1)C(=O)Nc1ccccc12 [Example 70] |  | > 1000 |
| Cc1cccc(C)c1NC(CC(=O)N(C)[C@@H](CC(C)C)C(=O)N1C[C@]2(C[C@H]1C#N)C(=O)Nc1ccccc12)C(F)(F)F (stereo partly drawn) [Example 198] |  | < 100 |
| N#C[C@@H]1C[C@@]2(CN1C(=O)CC(=O)N[C@H]1CC[C@@H](O)C1)C(=O)Nc1ccccc12 [Example 182] |  | > 1000 |
| C[C@]1(O)CC[C@@H](NC(=O)C(=O)N2C[C@]3(C[C@H]2C#N)C(=O)Nc2ccccc23)CC1 [Example 178] |  | > 1000 |
| CC(C)(C)OC(=O)N[C@H]1CCC[C@@H]1NC(=O)C(=O)N1C[C@]2(C[C@H]1C#N)C(=O)Nc1ccccc12 [Example 153] |  | > 1000 |
| N#C[C@@H]1C[C@@]2(CN1C(=O)NCCc1cc3ccccc3[nH]1)C(=O)Nc1ccccc12 [Example 131] |  | > 1000 |
| N#C[C@@H]1C[C@@]2(CN1C(=O)OC1CC1)C(=O)Nc1ccccc12 [Example 69] |  | > 1000 |
| N#C[C@@H]1C[C@@]2(CN1C(=O)C(=O)Nc1ccc(C(F)(F)F)cn1)C(=O)Nc1ccccc12 [Example 162] |  | > 1000 |
| N#C[C@@H]1C[C@@]2(CN1C(=O)[C@H](Cc1ccccc1)C(=O)NC1CCCCC1)C(=O)Nc1ccccc12 [Example 118] |  | 100 to 1000 |
| N#C[C@@H]1C[C@@]2(CN1C(=O)C1(C(=O)c3ccccc3)CC1)C(=O)Nc1ccccc12 [Example 102] |  | > 1000 |
| N#C[C@@H]1C[C@@]2(CN1S(=O)(=O)C1CCCC1)C(=O)Nc1ccccc12 [Example 128] |  | > 1000 |
| CC(C)NC(=O)[C@H](Cc1ccccc1)C(=O)N1C[C@]2(C[C@H]1C#N)C(=O)Nc1ccccc12 [Example 115] |  | > 1000 |
